Measurements: patent US20220387483A1, “USE OF IODIDE COMPOUNDS FOR THE TREATMENT AND PREVENTION OF CHEMOTHERAPY-ASSOCIATED CACHEXIA AND CARDIOTOXICITY” (FARADAY PHARMACEUTICALS, INC., priority 2019, published 2022)

Columns and labels:
[1] = test system: Balb/c mice bearing subcutaneous CT26 tumors; experiment: muscle histology and morphometry (muscle fiber area) in the CT26 cancer cachexia model; format: in vivo; settings: for muscle fiber area, gastrocnemius / muscle fiber area, soleus: histopathological images vs vehicle control; for muscle fiber area, tibialis anterior: vs vehicle control
Method: (§1) The anti-cachectic activity of iodide was evaluated in a cancer cachexia model of Balb/c mice bearing subcutaneous CT26 tumors. NaI was administered as FDY-5301, which is sodium iodide solubilized in water and balanced with sodium chloride to create an isotonic saline solution, with a pH between 7.0 and 9.5. As shown in the experimental design depicted in FIG. 1, when tumor volume reached 100 mm^3, the mice were either left untreated, or treated with one of the following: (i) vehicle control (0.5% CMC); (ii) NaI (FDY-5301) at 2 mg/kg i.v., QD×3 weeks; (iii) bucindolol at 2 mg/kg p.o., QD×3 weeks; or (iv) NaI (FDY-5301) at 40 ug/day slow release via Alzet osmotic pump (flow rate 0.11 uL/h) s.c. for 20 days. On day 14, 1 hour post dosing, blood samples were taken from three animals from groups 2, 3, and 5. On day 20, the animals were humanely euthanized and tumor and animal characteristics were measured. Prior to euthanasia, blood samples were collected for evaluation of biochemical parameters. Following euthanasia, tumor tissue and organs, muscles were collected and weighed.
Morphometric evaluation of transverse sections of muscle fiber area (um2) was performed on tibialis anterior, gastrocnemius, and soleus muscles from the animals described in Example 1, for evaluation of anti-cachectic properties of FDY-5301 and bucindolol in the cancer cachexia model.

[2] = test system: Balb/c mice bearing subcutaneous CT26 tumors; experiment: cancer cachexia model of Balb/c mice bearing subcutaneous CT26 tumors; format: in vivo; settings: for TNF-α level / creatine kinase level / serum LDL level / serum VLDL level / serum triglyceride level / % tumor grow inhibition (TGI): vs vehicle control; for % tumor grow inhibition (TGI): day 20; for IL-6 level / kidney weight / lung weight / spleen weight / serum levels of TNF-α: test groups vs vehicle control; for IL-6 level: FIG. 10B; for kidney weight / lung weight / spleen weight / serum levels of TNF-α: significance; for serum levels of TNF-α: FIG. 10A; for body weight: throughout the experimental period
Method: as §1

[3] = test system: cardiotoxicity induced by doxorubicin; experiment: cardiotoxicity induced by doxorubicin chemotherapy, ejection fraction via ultrasound; format: in vivo, C57Bl/6 mice
Method: Male C57Bl/6 mice (˜10 weeks old) were given a 15 mg/kg i.p. bolus of doxorubicin to induce cardiotoxicity. Assessment of ejection fraction was performed via ultrasound at baseline (day 0, prior to any doxorubicin administration) and on days 3, 7, 14 or 28 days post administration. Dosing of placebo or FDY-5301 was done in a blinded fashion, as was all ultrasound analysis.
A single 2 mg/kg i.v. bolus of FDY-5301 was administered by the retro orbital (r.o.) route and immediately followed by 15 mg/kg doxorubicin i.p. Placebo treated animals received saline. A Vevo® 2100 imaging system was used to assess cardiac function on days 0 (baseline), 7, 14, & 28.
A single 2 mg/kg i.v. bolus of NaI was administered by the retro orbital (r.o.) route followed immediately by the s.c. implantation of an osmotic pump designed to deliver 2 mg/kg/day of NaI. The mice then received a 15 mg/kg doxorubicin i.p. bolus. Placebo treated animals received saline (and an osmotic pump filled with saline). Cardiac function was assessed on days 0 (baseline), 3, 7 & 14.

[4] = slow release via Alzet osmotic pump

With `CC(C)(Cc1c[nH]c2ccccc12)NCC(O)COc1ccccc1C#N` (stereo not shown) [bucindolol, reference compound] the “muscle fiber area, gastrocnemius” value ([1]; 2 mg/kg p.o.) was “increased muscle fiber area”, the “muscle fiber area, soleus” value ([1]; 2 mg/kg p.o.) was “increased muscle fiber area” and the TNF-α level ([2]; 2 mg/kg p.o.) was “marginally higher”. The creatine kinase level ([2]; 2 mg/kg p.o.) was “higher level”, the “serum LDL level” value ([2]; 2 mg/kg p.o.) was “non-significant change” and the “serum VLDL level” value ([2]; 2 mg/kg p.o.) was “significant decrease”. The serum triglyceride level ([2]; bucindolol 2 mg/kg p.o.) was “significantly lower”, the “% tumor grow inhibition (TGI)” value ([2]; 2 mg/kg p.o., QD×3 weeks) was 24% and the IL-6 level [2] was “Non-significant”. The kidney weight [2] was “Non-significant”, the lung weight [2] was “Non-significant” and the spleen weight [2] was “Non-significant”. For the same compound, the “serum levels of TNF-α” value [2] was “Non-Significant” and the body weight ([2]; 2 mg/kg p.o., QD×3 weeks) was “progressive body weight gain”.
With `[I-].[Na+]` [FDY-5301, sodium iodide] the “muscle fiber area, gastrocnemius” value ([1]; 40 ug/day Alzet pump) was “increased muscle fiber area”, the “muscle fiber area, soleus” value ([1]; 40 ug/day Alzet pump) was “increased muscle fiber area” and the “muscle fiber area, tibialis anterior” value ([1]; 40 ug/day slow release via Alzet osmotic pump) was “significant increase”. For the same compound, the “muscle fiber area, tibialis anterior” value ([1]; 40 ug/day slow release via Alzet osmotic pump, listed as FDY-3501) was “increased muscle fiber area”, the “muscle fiber area, gastrocnemius” value ([1]; 2 mg/kg i.v.) was “increased muscle fiber area” and the “muscle fiber area, soleus” value ([1]; 2 mg/kg i.v.) was “increased muscle fiber area”. The “muscle fiber area, tibialis anterior” value ([1]; 2 mg/kg i.v.) was “Non-significant”, the “muscle fiber area, tibialis anterior” value ([1]; 2 mg/kg i.v., listed as FDY-3501) was “increased muscle fiber area” and the “ejection fraction (EF)” value ([3]; 2 mg/kg i.v. bolus + s.c. osmotic pump 2 mg/kg/day, 15 mg/kg doxorubicin i.p., by day 14, vs placebo) was “stabilized EF”. For the same compound, the ejection fraction ([3]; combined results of bolus and bolus + continuous studies, delivered at the time of chemotherapy) was “prevents a significant reduction in ejection fraction”, the “change in ejection fraction from baseline” value ([3]; single 2 mg/kg i.v. bolus then 15 mg/kg doxorubicin i.p., days 7, 14, 28, vs placebo) was “less of a reduction in change in ejection fraction from baseline” and the TNF-α level ([2]; 2 mg/kg i.v.) was “non-significantly lower”. The creatine kinase level ([2]; 2 mg/kg i.v.) was “marginal decrease”, the “serum LDL level” value ([2]; 2 mg/kg i.v.) was “non-significant change” and the serum triglyceride level ([2]; 2 mg/kg i.v.) was “marginally lower”. For the same compound, the “% tumor grow inhibition (TGI)” value ([2]; 40 ug/day slow release via Alzet osmotic pump s.c.) was 23%, the “% tumor grow inhibition (TGI)” value ([2]; 2 mg/kg i.v., QD×3 weeks) was 31% and the TNF-α level [2, 4] was “marginally higher”. The “serum LDL level” value [2, 4] was “significant increase”, the “serum VLDL level” value [2, 4] was “significant decrease” and the serum triglyceride level [2, 4] was “significantly lower”. For the same compound, the creatine kinase level ([2]; slow release) was “marginal decrease”, the IL-6 level [2] was “Non-significant” and the kidney weight [2] was “Non-significant”. For the same compound, the lung weight [2] was “Non-significant”, the spleen weight [2] was “Non-significant” and the “serum levels of TNF-α” value [2] was “Non-Significant”. For the same compound, the body weight ([2]; 2 mg/kg i.v., QD×3 weeks) was “progressive body weight gain” and the body weight [2, 4] was “progressive body weight gain”.
